Experiment [1] in a line: Oral antihypertensive activity: blood pressure and heart rate (Table 9). In kind it is in vivo. The note with it: oral dose 1 mg/kg. An excerpt:
Compounds of formula I, and their pharmaceutically acceptable salts are orally active as antihypertensive agents.

For the next experiment, the system named is Treponema hyodysenteriae. As to the kind of experiment: Activity against Treponema hyodysenteriae (MIC, blood agar plates). The note with it: Brachyspira hyodysenteriae, 48 h, 42° C., anaerobic. In kind it is cell-based. An excerpt: Testing for activity against Treponema hyodysenteriae, a cause of swine dysentery consisted of inoculation of blood agar plates containing a series of two or fourfold dilutions of the monensin urethane derivatives with tenfold dilutions of the T. hyodysenteriae strain.

For the next experiment, the system named is Staph. aureus 6538. The experiment is described as follows: Minimum Inhibitory Concentration, agarwell diffusion assay (Table 6). The following applies: Staphylococcus aureus, 6538, read-out: Minimum Inhibitory Concentration, Staph. aureus 6538. In kind it is cell-based. An excerpt: (§1) (a) Lowest twofold dilution giving zone of inhibition in the agarwell
(§2) (b) NRRL collection number, all the rest ate ATCC numbers.

A further experiment has as its system Bacillus megaterium 8CU. The description is as above. The class given is cell-based. The following applies: Priestia megaterium, 8CU, read-out: Minimum Inhibitory Concentration, Bacillus megaterium 8CU.
Source text: as §1, §2

For another experiment, the system named is Bacillus subtilis 583. The experiment is described as above. In kind it is cell-based. The following applies: Bacillus subtilis, 583, Bacillus subtilis 583 (NRRL), read-out: Minimum Inhibitory Concentration.
Source text: as §1, §2

Experiment [2] deals with Streptococcus cellulosac 3313. The description is as above. In kind it is cell-based. The note with it: Streptococcus, 3313, read-out: Minimum Inhibitory Concentration, Streptococcus cellulosac 3313.
Source text: as §1, §2

In the next experiment the test system is Bacillus sp. TA 27860. The description is as above. The note with it: Bacillus, SP.TA27860, Bacillus sp. TA 27860, read-out: Minimum Inhibitory Concentration. The class given is cell-based.
Source text: as §1, §2

For the next experiment, the system named is Bacillus sp. E 27859. The description is as above. In kind it is cell-based. The note with it: Bacillus, SP.E27859, Bacillus sp. E 27859, read-out: Minimum Inhibitory Concentration.
Source text: as §1, §2

The next experiment deals with Sarcina lutca 9341. The experiment is described as above. In kind it is cell-based. The note with it: Sarcina, 9341, read-out: Minimum Inhibitory Concentration, Sarcina lutca 9341.
Source text: as §1, §2

Experiment [3] concerns Paceilomyces variotl 25820. The experiment is described as above. The class given is cell-based. The note with it: read-out: Minimum Inhibitory Concentration, Paceilomyces variotl 25820.
Source text: as §1, §2

For experiment [4], the system named is Streptococcus faecium 8043. The experiment is described as above. The following applies: Enterococcus faecium, 8043, Streptococcus faecium 8043, read-out: Minimum Inhibitory Concentration. The class given is cell-based.
Source text: as §1, §2

The test system of a further experiment is MycoBacterium phiel 355. The description is as above. In kind it is cell-based. The note with it: Mycobacterium, 355, read-out: Minimum Inhibitory Concentration, MycoBacterium phiel 355.
Source text: as §1, §2

For a further experiment, the system named is Plasmodium berghei. The experiment is described as follows: Oral antimalarial activity against Plasmodium berghei in mice. In kind it is in vivo. The following applies: p.o. An excerpt: Compounds of formula I wherein R4 is aryl, haloaryl or nitroaryl and their pharmaceutically acceptable salts are orally active as antimalarial agents.
In another experiment the test system is rumen fluid. The note with it: 50 ppm; control 100.
In the next experiment the test system is Eimeria tenella. The experiment is described as follows: Anti-coccidial effect of monensin urethanes added to the feed of infected chickens (Table 7). In kind it is in vivo. The following applies: 75 ppm in feed; infected untreated control 3.0; less than 2.5 significant. Here is the method: This test utilizes ten chickens per drug group. Ten chickens are employed as a weight control and ten chickens as an infected control. The drug is given 48 hours in advance of the infection. One gm. of the test drug is mixed in a mechanical mixer with a sufficient amount of chicken feed to result in the desired dosage. The infection consists of approximately 200,000 oocysts given orally by pipette. The tests lasts for eleven days and then the surviving birds are autopsied and examined for gross lesions in the ceca. The test birds are rated according to the number of survivors and the number of cecal lesions. The results are expressed as average degree of infection (A.D.I.). An average degree of infection of less than 2.5 is considered to be significant.

Structures can show the parent of a compound that is named as a salt.

As a reminder, the ED50 is the dose at which the effect has come halfway, by size or by number of responders. A high value points to weaker potency.

For `CCC1(C2OC(C3OC(O)(COC(=O)Nc4ccc(Br)cc4)C(C)CC3C)CC2C)CCC(C2(C)CCC3(CC(O)C(C)C(C(C)C(OC)C(C)C(=O)O)O3)O2)O1` (stereo not shown) [Monensin A, 4-bromophenylurethane, 4-bromophenylaminocarbonyloxy-(0-11)-monensin, sodium salt], the “Day of Maximum Change, Blood Pressure” value in [1] is 2 days. The “Maximum Change (%), Blood Pressure” value in [1] is 21%. The “Mean Blood Pressure at time of maximum effect” value in experiment [1] (at time of maximum effect) was 178 mm Hg. In addition, the “Mean Blood Pressure before treatment” value in experiment [1] (before treatment) was found to be 225 mm Hg. Besides, the MIC in the experiment with Treponema hyodysenteriae is 0.4 µg/mL; in the experiment with Staph. aureus 6538, 0.8 µg/mL; in the experiment with Bacillus megaterium 8CU, 0.1 µg/mL; with Bacillus subtilis 583 it was 0.4 µg/mL; in experiment [2], 0.8 µg/mL; with Bacillus sp. TA 27860, 0.2 µg/mL. Besides, the MIC with Bacillus sp. E 27859 stood at 0.05 µg/mL; in the experiment on Sarcina lutca 9341, 0.2 µg/mL; in experiment [3], 1.6 µg/mL; in experiment [4], 0.1 µg/mL; in the experiment on MycoBacterium phiel 355, 1.6 µg/mL. Also, the 50% effective dose (ED50) in the experiment on Plasmodium berghei lay in the range of 15 to 20 mg/kg. Besides, in the experiment with rumen fluid, the “Rate of Gas Production, Percent Production of Control Fermentations” value was 103.0%. The “Total VFA, Percent Production of Control Fermentations” value in the experiment on rumen fluid turned out to be 89.9%. Moreover, the “Average Degree of Infected (A.D.I.)” value in the experiment with Eimeria tenella was 0.7.

(Values after patent US4263427A, “Monensin urethane derivatives” (priority 1979, dated 1981).)
